The values that follow come from patent publication US11708348B2, “Protease inhibitors for treatment of coronavirus infections” (The Scripps Research Institute, priority 2021, dated 2023).

For the first assay, the system named is SARS-CoV-2 strain USA-WA1/2020. Briefly: microbe, parasite or virus in culture. The class given is cell-based. Conditions: HeLa-ACE2 cells, SARS-CoV-2 infection, 24 h; class symbols; read-out: EC50, uM (Hela).
Broadly, the EC50 is the concentration that produces a half-maximal response. As for `COc1cccc2[nH]c(C(=O)N[C@@H](CC(C)C)C(=O)N[C@@H](C[C@@H]3CCNC3=O)C(=O)COc3c(F)cccc3F)cc12` [Compound 2], the concentration for a half-maximal effect (EC50) was 0.5 to 1 µM.

The same assay, now with this note: Severe acute respiratory syndrome coronavirus 2, HeLa-ACE2, 24 h, HeLa-ACE2 cells, SARS-CoV-2 infection, 24 h; cells given as a bound; read-out: EC50, uM (Hela).
As for `CC(C)C[C@H](NC(=O)Cc1cccc(Cl)c1)C(=O)N[C@@H](C[C@@H]1CCNC1=O)C(=O)COc1c(F)c(F)cc(F)c1F` [Compound 144, (S)-2-(2-(3-chlorophenyl)acetamido)-4-methyl-N—((S)-3-oxo-1-((S)-2-oxopyrrolidin-3-yl)-4-(2,3,5,6-tetrafluorophenoxy)butan-2-yl)pentanamide], the concentration for a half-maximal effect (EC50) is more than 1 µM.

Still in this assay, the particulars now being: Severe acute respiratory syndrome coronavirus 2, HeLa-ACE2, 24 h, HeLa-ACE2 cells, SARS-CoV-2 infection, 24 h; class symbols; read-out: EC50, uM (Hela).
Consider `COCC(C)(C)NC(=O)C(=O)N[C@@H](CC(C)C)C(=O)N[C@@H](C[C@@H]1CCNC1=O)C(=O)COC(F)(F)F` [Compound 193, N1-(1-methoxy-2-methylpropan-2-yl)-N2-((S)-4-methyl-1-oxo-1-(((S)-3-oxo-1-((S)-2-oxopyrrolidin-3-yl)-4-(trifluoromethoxy)butan-2-yl)amino)pentan-2-yl)oxalamide], for which the EC50 is less than 0.05 µM.

Turning to `O=C(Nc1ccccc1F)C(=O)N[C@@H](CC1CC1)C(=O)N[C@@H](C[C@@H]1CCNC1=O)C(=O)COc1c(F)c(F)cc(F)c1F` [Compound 109, N1-((S)-3-cyclopropyl-1-oxo-1-(((S)-3-oxo-1-((S)-2-oxopyrrolidin-3-yl)-4-(2,3,5,6-tetrafluorophenoxy)butan-2-yl)amino)propan-2-yl)-N2-(2-fluorophenyl)oxalamide], the EC50 was less than 0.05 µM.

With `CC(C)C[C@@H](OC(=O)NC(C)(C)C)C(=O)N1CC2(CC2)C[C@H]1C(=O)N[C@@H](C[C@@H]1CCNC1=O)C(=O)COC(F)(F)F` [Compound 328, (R)-4-methyl-1-oxo-1-((S)-6-(((S)-3-oxo-1-((S)-2-oxopyrrolidin-3-yl)-4-(trifluoromethoxy)butan-2-yl)carbamoyl)-5-azaspiro[2.4]heptan-5-yl)pentan-2-yl tert-butylcarbamate], the 50% effective concentration (EC50) is less than 0.05 µM.

With `O=C(N[C@@H](Cc1ccccc1)C(=O)N[C@@H](C[C@@H]1CCNC1=O)C(=O)COc1c(F)c(F)cc(F)c1F)c1cc2cc(F)ccc2[nH]1` [Compound 14, 5-fluoro-N-((S)-1-oxo-1-(((S)-3-oxo-1-((S)-2-oxopyrrolidin-3-yl)-4-(2,3,5,6-tetrafluorophenoxy)butan-2-yl)amino)-3-phenylpropan-2-yl)-1H-indole-2-carboxamide], the EC50 lay in the range of 0.05 to 0.2 µM.

As for `CC(C)(C)CC(O)C(=O)N1C[C@H]2[C@@H]([C@H]1C(=O)N[C@@H](C[C@@H]1CCNC1=O)C(=O)COC(F)(F)F)C2(C)C` (stereo partly drawn) [Compound 347, (1R,2S,5S)-3-(2-hydroxy-4,4-dimethylpentanoyl)-6,6-dimethyl-N-((S)-3-oxo-1-((S)-2-oxopyrrolidin-3-yl)-4-(trifluoromethoxy)butan-2-yl)-3-azabicyclo-[3.1.0]hexane-2-carboxamide], the EC50 is less than 0.05 µM.

As for `O=C(Nc1ccccc1F)C(=O)N[C@@H](CCC1CCCCC1)C(=O)N[C@@H](C[C@@H]1CCNC1=O)C(=O)COc1c(F)c(F)cc(F)c1F` [Compound 108, N1-((S)-4-cyclohexyl-1-oxo-1-(((S)-3-oxo-1-((S)-2-oxopyrrolidin-3-yl)-4-(2,3,5,6-tetrafluorophenoxy)butan-2-yl)amino)butan-2-yl)-N2-(2-fluorophenyl)oxalamide], the EC50 fell in the range of 0.2 to 0.5 µM.

`CC(C)C[C@H](NC(=O)c1cc(-c2ccccc2F)on1)C(=O)N[C@@H](C[C@@H]1CCNC1=O)C(=O)COC(F)(F)F` [Compound 171, 5-(2-fluorophenyl)-N-((S)-4-methyl-1-oxo-1-(((S)-3-oxo-1-((S)-2-oxopyrrolidin-3-yl)-4-(trifluoromethoxy)butan-2-yl)amino)pentan-2-yl)isoxazole-3-carboxamide]: the EC50 is less than 0.05 µM.

Still in this assay, the particulars now being: Severe acute respiratory syndrome coronavirus 2, HeLa-ACE2, 24 h, HeLa-ACE2 cells, SARS-CoV-2 infection, 24 h; read-out: EC50, uM (Hela).
In the case of `O=C(N[C@@H](CC1CC1)C(=O)N[C@@H](C[C@@H]1CCNC1=O)C(=O)COC(F)(F)F)c1cc(Cc2ccccc2)on1` [Compound 462, 5-benzyl-N-((S)-3-cyclopropyl-1-oxo-1-(((S)-3-oxo-1-((S)-2-oxopyrrolidin-3-yl)-4-(trifluoromethoxy)butan-2-yl)amino)propan-2-yl)isoxazole-3-carboxamide], the EC50 was less than 0.05 µM.

With `C[C@H](C[C@@H](O)C(=O)N1CC2(CC2)C[C@H]1C(=O)N[C@@H](C[C@@H]1CCNC1=O)C(=O)COC(F)(F)F)C(F)(F)F` (single isomer, unassigned) [Compound 426], the EC50 was less than 0.05 µM.

As to `CC(C)[C@H](O)CC(=O)N1CC2(CC2)C[C@H]1C(=O)N[C@@H](C[C@@H]1CCNC1=O)C(=O)COC(F)(F)F` [Compound 431, (S)-5-((R)-3-hydroxy-4-methylpentanoyl)-N-((S)-3-oxo-1-((S)-2-oxopyrrolidin-3-yl)-4-(trifluoromethoxy)butan-2-yl)-5-azaspiro[2.4]heptane-6-carboxamide], the EC50 fell in the range of 0.05 to 0.2 µM.

`CC(C)CCC(=O)N1CC2(CC2)C[C@H]1C(=O)N[C@@H](C[C@@H]1CCNC1=O)C(=O)COC(F)(F)F` [Compound 429, (S)-5-(4-methylpentanoyl)-N—((S)-3-oxo-1-((S)-2-oxopyrrolidin-3-yl)-4-(trifluoromethoxy)butan-2-yl)-5-azaspiro[2.4]heptane-6-carboxamide]: the concentration giving a half-maximal response (EC50) is less than 0.05 µM.

Regarding `O=C(N[C@@H](C[C@@H]1CCNC1=O)C(=O)COC(F)(F)F)C1CCCCCN1C(=O)[C@@H](O)c1ccccc1` (stereo partly drawn) [Compound 768, l-((S)-2-hydroxy-2-phenylacetyl)-N-((S)-3-oxo-1-((S)-2-oxopyrrolidin-3-yl)-4-(trifluoromethoxy)butan-2-yl)azepane-2-carboxamide], the EC50 lay within 0.05 to 0.2 µM.

Take `CC1(CC(NC(=O)C(=O)NC2CC2)C(=O)N[C@@H](C[C@@H]2CCNC2=O)C(=O)COC(F)(F)F)CC1` (stereo partly drawn) [Compound 578, N1-cyclopropyl-N2-(3-(1-methylcyclopropyl)-1-oxo-1-(((S)-3-oxo-1-((S)-2-oxopyrrolidin-3-yl)-4-(trifluoromethoxy)butan-2-yl)amino)propan-2-yl)oxalamide]: the EC50 is less than 0.05 µM.

In the case of `O=C(Nc1ccccc1F)C(=O)N1C[C@@H]2CC[C@@H]2[C@H]1C(=O)N[C@@H](C[C@@H]1CCNC1=O)C(=O)COC(F)(F)F` [Compound 563, (1S,2S, 5R)-3-(2-((2-fluorophenyl)amino)-2-oxoacetyl)-N-((S)-3-oxo-1-((S)-2-oxopyrrolidin-3-yl)-4-(trifluoromethoxy)butan-2-yl)-3-azabicyclo-[3.2.0]heptane-2-carboxamide], the EC50 was in the range of 0.05 to 0.2 µM.

Consider `O=C1NCC[C@H]1C[C@H](NC(=O)[C@@H]1CC2(CC2)CN1C(=O)C(O)c1ccccn1)C(=O)COC(F)(F)F` (stereo partly drawn) [Compound 418, (6S)-5-(2-hydroxy-2-(pyridin-2-yl)acetyl)-N-((S)-3-oxo-1-((S)-2-oxopyrrolidin-3-yl)-4-(trifluoromethoxy)butan-2-yl)-5-azaspiro[2.4]heptane-6-carboxamide], for which the EC50 fell in the range of 0.05 to 0.2 µM.

On to `O=C1NCC[C@H]1C[C@H](NC(=O)[C@@H]1CC2(CC2)CN1C(=O)c1ncccc1F)C(=O)COC(F)(F)F` [Compound 593, (S)-5-(3-fluoropicolinoyl)-N-((S)-3-oxo-1-((S)-2-oxopyrrolidin-3-yl)-4-(trifluoromethoxy)butan-2-yl)-5-azaspiro[2.4]-heptane-6-carboxamide], for which the half-maximal effective concentration (EC50) lay within 0.2 to 0.5 µM.
